{"source": "patent US12037411B2", "about": "“Antibodies, and bispecific antigen-binding molecules that bind HER2 and/or APLP2, conjugates, and uses thereof” (Regeneron Pharmaceuticals, Inc., priority 2018, dated 2024)", "key": {"APLP2 in T47D cells": {"system": "APLP2 in T47D cells", "experiment": "APLP2 turnover after cycloheximide treatment (western blot)", "assay_type": "cell-based, human", "conditions": "for Normalized APLP2 expression: 50 ug/ml", "experimental": "(§1) Additionally, the degradation rates of APLP2 and HER2 was tested on T47D cells. For the assay, T47D cells were plate at 10^6 cells/well in 6 well plates (Corning #3516). The cells were allowed to grow overnight at 37° C. in 5% CO2 in media consisting of RPMI 1640+10% FBS+1 mM sodium pyruvate+10 mM HEPES+10 ug/mL Insulin+5 mL Penicillin/Streptomycin/Glutamine. The following day, cells were treated with 50 ug/ml cycloheximide (Sigma #C4859-1ML) for 0, 0.5, 1.5, 2.5, 3.5, 4.5 and 5.5 hours. After the incubation, cells were washed once with 1 ml of DPBS/CM, and subsequently placed on ice and then the DPBS/CM was replaced with 800 uL of lysis buffer [1×RIPA (Boston Bioproducts, Cat #BP-116)+Protease inhibitor (Thermo Fisher, 1861280), cells were scraped and lysates were transferred to 1.5 ml Eppendorf tubes. Afterwards, the samples were sonicated with 25 pulses, 1 sec each at 50% power. Afterwards, the samples were frozen at −20° C. The samples were later thawed and 52 ul of each sample was mixed with 20 ul 4× Laemmli (Invitrogen, NP0007)+8 uL 10× Reducing agent (Invitrogen, Cat #NP0009)]. Samples were boiled at 95° C. for 10 minutes, centrifuged at 14000 RPM for 10 minutes at room temperature. 40 uL of each sample was loaded into three Wedged 4-20% TRIS-Glycine gels (Invitrogen, XPO4125BOX) and ran at 150V. The gels were then transferred into two PVDF membranes (ThermoFisher, IB24001) with iBlot2 dry blotting system (ThermoFisher, 1321001). The membranes were then blocked with 5% milk (BioRad, Cat #170-6404) in TBS for 3 hours at room temperature. Primary antibodies, rabbit-anti-HER2 antibody (Dako, Cat #A048529) or rabbit-anti-APLP2 antibody (abcam, Cat #ab140624) in 2.5% Milk+0.1% Tween (Sigma, Cat #P8074) in TRIS buffered saline (TBS; ThermoFisher, Cat #28376), were then added to the membranes and incubated at 4° C. overnight. The membranes were then washed 3 times with TBS for 5 minutes at room temperature. After, anti-rabbit-HRP antibodies (Promega, #W4011) and anti-actin-HRP antibody (Santa Cruz, Cat #sc-47779) in 2.5% Milk+0.1% Tween in TBS were added to the membranes and incubated at room temperature for 1 hour. The membranes were then washed 2 times with TBS+0.1% Tween at room temperature for 5 minutes, and then washed 2 more times with TBS room temperature for 5 minutes. The blot was then developed with ECL Detection Reagent (GE healthcare, Cat #RPN2106) and imaged with Azure C300 imager. Band quantification (mean fluorescence intensity minus background) was performed using ImageJ. Table 11 summarizes HER2, APLP, or T47D cells after cycloheximide (CHX) treatment normalized to cells having no CHX contact."}, "HER2 in T47D cells": {"system": "HER2 in T47D cells", "experiment": "HER2 turnover after cycloheximide treatment (western blot)", "assay_type": "cell-based, human", "conditions": "for Normalized HER2 expression: 50 ug/ml", "experimental": "as §1"}}}
{"smiles": "C[C@@H]1C[C@@H]([C@H](O)CC2CC(=O)NC(=O)C2)C(=O)[C@@H](C)C1", "note": "[CHX, cycloheximide]", "values": [{"measurement": "Normalized APLP2 expression", "setting": "APLP2 in T47D cells; CHX treatment 0.5 hours", "value": 41, "unit": "%"}, {"measurement": "Normalized APLP2 expression", "setting": "APLP2 in T47D cells; CHX treatment 1.5 hours", "value": 22, "unit": "%"}, {"measurement": "Normalized APLP2 expression", "setting": "APLP2 in T47D cells; CHX treatment 2.5 hours", "value": 9, "unit": "%"}, {"measurement": "Normalized APLP2 expression", "setting": "APLP2 in T47D cells; CHX treatment 3.5 hours", "value": 7, "unit": "%"}, {"measurement": "Normalized APLP2 expression", "setting": "APLP2 in T47D cells; CHX treatment 4.5 hours", "value": 8, "unit": "%"}, {"measurement": "Normalized APLP2 expression", "setting": "APLP2 in T47D cells; CHX treatment 5.5 hours", "value": 6, "unit": "%"}, {"measurement": "APLP2 degradation", "setting": "APLP2 in T47D cells; after 5.5 hours", "value": 94, "unit": "%"}, {"measurement": "APLP2 degraded", "setting": "APLP2 in T47D cells; in 1.5 hours", "value": "Eighty-eight"}, {"measurement": "Normalized HER2 expression", "setting": "HER2 in T47D cells; CHX treatment 0.5 hours", "value": 57, "unit": "%"}, {"measurement": "Normalized HER2 expression", "setting": "HER2 in T47D cells; CHX treatment 1.5 hours", "value": 78, "unit": "%"}, {"measurement": "Normalized HER2 expression", "setting": "HER2 in T47D cells; CHX treatment 2.5 hours", "value": 68, "unit": "%"}, {"measurement": "Normalized HER2 expression", "setting": "HER2 in T47D cells; CHX treatment 3.5 hours", "value": 64, "unit": "%"}, {"measurement": "Normalized HER2 expression", "setting": "HER2 in T47D cells; CHX treatment 4.5 hours", "value": 88, "unit": "%"}, {"measurement": "Normalized HER2 expression", "setting": "HER2 in T47D cells; CHX treatment 5.5 hours", "value": 78, "unit": "%"}, {"measurement": "HER2 degradation", "setting": "HER2 in T47D cells; after 5.5 hours", "value": 22, "unit": "%"}]}
